biological target: T1, sigma receptors (Cavia porcellus, UniProt Q60492); test: sigma receptor binding activity, [3H]-(+)-pentazocine binding to guinea pig brain membranes; parameters: species or system male Hartley guinea pigs; conditions: at 10 μM; guinea pig brain membranes; approximately 0.5 nM [3H]-(+)-pentazocine; 37° C., 150 min; read-out: Percent Inhibition (of [3H]-(+)-pentazocine binding)
T1 construct: Brain tissue was prepared from male Hartley guinea pigs; tissue Hazelton Labs, Denver, Pa; (animals); host or cells: guinea pig brain membranes
Experimental: Brain tissue was prepared from male Hartley guinea pigs (Hazelton Labs, Denver, Pa.) which were anesthetized with CO2 and sacrificed by decapitation. All animal care and use procedures were in accord with the "Guide for the Care and Use of Laboratory Animals" (NIH Publ. No 86-23, 1985). Homogenization was performed in 10 volumes (wt/vol) of 0.32M sucrose with a Brinkmann Polytron at setting 5, 30 sec. The homogenate was centrifuged at 900 x g for 10 min at 4° C., and the supernatant was collected and centrifuged at 22,000 x g for 20 min at 4° C. The pellet was resuspended in 10 volumes of Tris-HCl buffer (50 mM, pH 7.4), incubated at 37° C. for 30 min, and centrifuged at 22,000 x g for 20 min at 4° C. Following this, the pellet was resuspended in Tris buffer and frozen in 5-10 mL aliquots corresponding to a tissue concentration of 100 mg/mL, at -70° C. Binding characteristics of the membranes were stable for at least one month when stored at -70° C.
On the day of the assay, membrane aliquots were thawed, resuspended in fresh Tris-HCl buffer and stored on ice until use. Each assay tube contained 100 μL of [3H]-(+)-pentazocine at a final concentration of approximately 0.5 nM, 100 μL of various concentrations of the compounds of interest, 500 μL of the tissue suspension and 300 μL of buffer to a final assay volume of 1 mL and a final tissue concentration of approximately 8 mg/tube, corresponding to approximately 0.15 mg protein/tube. Nonspecific binding was defined by addition of a final concentration of 1 μM haloperidol to blank tubes. All tubes were incubated at 37° C. for 150 min before termination of the reaction by rapid filtration over Whatman GF/B glass fiber filters that were presoaked in a solution of 0.5% polyethyleneimine for at least 1 hr prior to use. Filters were washed with three 4 ml volumes of cold Tris-HCl buffer.
Following addition of scintillation cocktail, samples were allowed to equilibrate for at least 4 hr. The amount of bound radioactivity was determined by liquid scintillation spectrometry using a Beckman LS 5000 TA liquid scintillation counter with an efficiency for tritium of approximately 60%. The results are reported as a percent (%) inhibition of binding at 10 μM.
Scatchard parameters and inhibition constants (Ki values) for the binding of test compounds were also calculated using the EBDA/LIGAND program (McPherson, J. Pharmacol. Meth. 1985, 14, 213-228), purchased from Elsevier/Biosoft, Inc. The Ki values are expressed as the mean ±SEM of at least three separate determinations performed in triplicate.

T1 sequence (Q60492 whole entry): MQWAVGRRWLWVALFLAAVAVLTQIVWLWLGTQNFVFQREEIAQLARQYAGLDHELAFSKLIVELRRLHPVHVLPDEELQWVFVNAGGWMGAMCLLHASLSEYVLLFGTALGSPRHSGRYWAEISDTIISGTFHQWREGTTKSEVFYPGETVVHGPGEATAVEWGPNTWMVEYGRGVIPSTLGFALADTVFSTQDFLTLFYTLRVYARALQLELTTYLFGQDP

Row | Structure (SMILES) | inhibition at 10 µM [%]
1 | CCOC(=O)CC[C@]1(C)[C@H](C)CCN(C)[C@H]1C (relative stereo) [Example 1, ethyl 3-(1,2,3,4-tetramethyl-3-piperidine)propanoate] | 70
2 | C[C@@H]1CCN[C@@H](C)[C@]1(C)CCC(=O)CCC1CCCC1 (relative stereo) [Example 3b, 1-cyclopentyl-5-(2,3,4-trimethyl-3-piperidinyl)-3-pentanone] | 96
3 | C[C@@H]1CCN(CC2(O)CC2)[C@@H](C)[C@]1(C)CCC(=O)CCC1CCCC1 (relative stereo) [Example 3c] | 98
4 | CCOC(=O)CC[C@]1(C)[C@H](C)CCN(Cc2ccccc2)[C@H]1C (relative stereo) [Example 6, ethyl 3-[2,3,4-trimethyl-1-(phenylmethyl)-3-piperidine)propanoate] | 99
5 | CC1N(CC2(O)CC2)CCC2CCCCC21CCC(=O)CCC1CCCC1 (stereo not drawn) [Example 10] | 84

same assay, conditions: mean ±SEM of at least three separate determinations performed in triplicate; [3H]-(+)-pentazocine; EBDA/LIGAND

Row | Structure (SMILES) | Ki [nM]
6 | CCOC(=O)CC[C@]1(C)[C@H](C)CCN(Cc2ccccc2)[C@H]1C (relative stereo) [Example 6, ethyl 3-[2,3,4-trimethyl-1-(phenylmethyl)-3-piperidine)propanoate] | 39 ± 5

same assay, conditions: read-out: Percent Inhibition (of [3H]-(+)-pentazocine binding)

Row | Structure (SMILES) | inhibition at 10 µM [%]
7 | C[C@@H]1CCN(C)[C@@H](C)[C@]1(C)CCC(=O)CCC1CCCC1 (relative stereo) [Example 2, 1-cyclopentyl-5-(1,2,3,4-tetramethyl-3-piperidinyl)-3-pentanone] | 100
8 | C[C@@H]1CCN(C)[C@@H](C)[C@]1(C)CCC(=O)c1ccoc1 (relative stereo) [Example 4, 1-(3-furanyl)-3-(1.2.3.4-tetramethyl-3-piperidinyl)-1-propanone] | 78
9 | C[C@@H]1CCN(C)[C@@H](C)[C@]1(C)CCC(=O)c1ccco1 (relative stereo) [Example 5, 1-(2-furanyl)-3-(1,2,3,4-tetramethyl-3-piperidinyl)-1-propanone] | 57

Source: US5286733A, “Substituted 3-piperidinealkanoates and alkanones and compositions and method of use thereof” (Sterling Winthrop Inc., priority 1992, dated 1994)
